Laboratory results from US10376520B2, “Methods for the treatment of cardiovascular disorders” (Galapagos NV, priority 2015, dated 2019).

System: RA patients
Assay: Total cholesterol determination, Study 1 (RA patients with inadequate response to methotrexate, add-on to MTX)
Type: in vivo, human
Protocol: Double-blind, placebo-controlled add on study in subjects with moderately to severely active RA who have an inadequate response to methotrexate (MTX) (oral or parenteral).
595 subjects randomized to one of 6 dose regimens of Compound 1 (dosed as a [Compound 1:HCl:3H2O]) (3 dose levels administered either once or twice daily) or placebo on top of each subject's stable dose of MTX.
Compound 1 (dosed as a [Compound 1:HCl:3H2O]) is dosed for twelve weeks once daily (q.d.) (50 mg, 100 mg or 200 mg) or twice daily (b.i.d.) (25 mg, 50 mg or 100 mg); or placebo.
At Week 12, the subjects on placebo who have not achieved 20% improvement in swollen joint count (SJC66) and tender joint count (TJC68) are re-randomized automatically to receive Compound 1 (dosed as a [Compound 1:HCl:3H2O]) either at 100 mg q.d. or 50 mg b.i.d. doses in a blinded fashion; subjects on 50 mg q.d. who have not achieved 20% improvement in SJC66 and TJC68 will be assigned to 100 mg q.d. and subjects on 25 mg b.i.d. that have not achieved a 20% improvement in SJC66 and TJC68 will be assigned to 50 mg b.i.d. Subjects who switch treatment at week 12 are handled as if they discontinued at week 12 for the purpose of statistical analysis, whereas subjects in the other groups will maintain their randomized treatment until Week 24.
This method is based on the determination of Δ^4 cholestenone after enzymatic cleavage of the cholesterol ester by cholesterol esterase, conversion of cholesterol by cholesterol oxidase, and subsequent measurement by the Trinder reaction of the hydrogen peroxide formed (Allain et al., 1974).
Cholesterol esters are cleaved by the action of cholesterol esterase to yield free cholesterol and fatty acids. Cholesterol oxidase then catalyzes the oxidation of cholesterol to cholest-4-en-3-one and hydrogen peroxide. In the presence of peroxidase, the hydrogen peroxide formed effects the oxidative coupling of phenol and 4-aminophenazone to form a red quinone-imine dye. The color intensity of the dye formed is directly proportional to the cholesterol concentration. It is determined by measuring the increase in absorbance.
Human serum and plasma samples cholesterol determination was done on a Roche/Hitachi Cobas c 701/702 system which automatically calculate the analyte concentration of each sample.

[1] = Study 1 12 weeks results, 2 x 25 mg b.i.d., week 2
[2] = Study 1 12 weeks results, 2 x 25 mg b.i.d., week 4
[3] = Study 1 12 weeks results, 2 x 25 mg b.i.d., week 8
[4] = Study 1 12 weeks results, 2 x 25 mg b.i.d., week 12
[5] = Study 1 12 weeks results, 2 x 50 mg b.i.d., week 1
[6] = Study 1 12 weeks results, 2 x 50 mg b.i.d., week 2
[7] = Study 1 12 weeks results, 2 x 50 mg b.i.d., week 4
[8] = Study 1 12 weeks results, 2 x 50 mg b.i.d., week 8
[9] = Study 1 12 weeks results, 2 x 50 mg b.i.d., week 12
[10] = Study 1 12 weeks results, 2 x 100 mg b.i.d., week 1
[11] = Study 1 12 weeks results, 2 x 100 mg b.i.d., week 2
[12] = Study 1 12 weeks results, 2 x 100 mg b.i.d., week 4
[13] = Study 1 12 weeks results, 2 x 100 mg b.i.d., week 8
[14] = Study 1 12 weeks results, 2 x 100 mg b.i.d., week 12
[15] = Study 1 24 weeks results, continued 50 mg q.d., week 1
[16] = Study 1 24 weeks results, continued 50 mg q.d., week 2
[17] = Study 1 24 weeks results, continued 50 mg q.d., week 4
[18] = Study 1 24 weeks results, continued 50 mg q.d., week 8
[19] = Study 1 24 weeks results, continued 50 mg q.d., week 12
[20] = Study 1 24 weeks results, continued 50 mg q.d., week 16
[21] = Study 1 24 weeks results, continued 50 mg q.d., week 20
[22] = Study 1 24 weeks results, continued 50 mg q.d., week 24

O=C(Nc1nc2cccc(-c3ccc(CN4CCS(=O)(=O)CC4)cc3)n2n1)C1CC1 [Compound 1, cyclopropanecarboxylic acid {5-[4-(1,1-dioxo-thiomorpholin-4-ylmethyl)-phenyl]-[1,2,4]triazolo[1,5-a]pyridin-2yl}-amide]
[total cholesterol] Mean CFB (Study 1 12 weeks results, 2 x 25 mg b.i.d., week 1): 0.1 mmol/L | [Total cholesterol] Median CFB [1]: 0.10 mmol/L | [total cholesterol] Mean CFB [1]: 0.1 mmol/L | [Total cholesterol] Median CFB [2]: 0.05 mmol/L | [total cholesterol] Mean CFB [2]: 0.1 mmol/L | [Total cholesterol] Median CFB [3]: 0.05 mmol/L | [total cholesterol] Mean CFB [3]: 0.1 mmol/L | [Total cholesterol] Median CFB [4]: 0.13 mmol/L | [total cholesterol] Mean CFB [4]: 0.2 mmol/L | [Total cholesterol] Median CFB [5]: 0.21 mmol/L | [total cholesterol] Mean CFB [5]: 0.1 mmol/L | [Total cholesterol] Median CFB [6]: 0.18 mmol/L | [total cholesterol] Mean CFB [6]: 0.1 mmol/L | [Total cholesterol] Median CFB [7]: 0.28 mmol/L | [total cholesterol] Mean CFB [7]: 0.3 mmol/L | [Total cholesterol] Median CFB [8]: 0.22 mmol/L | [total cholesterol] Mean CFB [8]: 0.2 mmol/L | [Total cholesterol] Median CFB [9]: 0.23 mmol/L | [total cholesterol] Mean CFB [9]: 0.2 mmol/L | [Total cholesterol] Median CFB [10]: 0.28 mmol/L | [total cholesterol] Mean CFB [10]: 0.3 mmol/L | [Total cholesterol] Median CFB [11]: 0.31 mmol/L | [total cholesterol] Mean CFB [11]: 0.4 mmol/L | [Total cholesterol] Median CFB [12]: 0.45 mmol/L | [total cholesterol] Mean CFB [12]: 0.4 mmol/L | [Total cholesterol] Median CFB [13]: 0.55 mmol/L | [total cholesterol] Mean CFB [13]: 0.6 mmol/L | [Total cholesterol] Median CFB [14]: 0.80 mmol/L | [total cholesterol] Mean CFB [14]: 0.6 mmol/L | [total cholesterol] Mean CFB (Study 1 24 weeks results, continued 25 mg b.i.d, week 1): 0.11 mmol/L | [total cholesterol] Mean CFB (Study 1 24 weeks results, continued 25 mg b.i.d, week 2): 0.12 mmol/L | [total cholesterol] Mean CFB (Study 1 24 weeks results, continued 25 mg b.i.d, week 4): 0.14 mmol/L | [total cholesterol] Mean CFB (Study 1 24 weeks results, continued 25 mg b.i.d, week 8): 0.15 mmol/L | [total cholesterol] Mean CFB (Study 1 24 weeks results, continued 25 mg b.i.d, week 12): 0.26 mmol/L | [total cholesterol] Mean CFB (Study 1 24 weeks results, continued 25 mg b.i.d, week 16): 0.20 mmol/L | [total cholesterol] Mean CFB (Study 1 24 weeks results, continued 25 mg b.i.d, week 20): 0.27 mmol/L | [total cholesterol] Mean CFB (Study 1 24 weeks results, continued 25 mg b.i.d, week 24): 0.24 mmol/L | [total cholesterol] Mean CFB (Study 1 24 weeks results, continued 50 mg b.i.d., week 1): 0.15 mmol/L | [total cholesterol] Mean CFB (Study 1 24 weeks results, continued 50 mg b.i.d., week 2): 0.14 mmol/L | [total cholesterol] Mean CFB (Study 1 24 weeks results, continued 50 mg b.i.d., week 4): 0.28 mmol/L | [total cholesterol] Mean CFB (Study 1 24 weeks results, continued 50 mg b.i.d., week 8): 0.21 mmol/L | [total cholesterol] Mean CFB (Study 1 24 weeks results, continued 50 mg b.i.d., week 12): 0.23 mmol/L | [total cholesterol] Mean CFB (Study 1 24 weeks results, continued 50 mg b.i.d., week 16): 0.24 mmol/L | [total cholesterol] Mean CFB (Study 1 24 weeks results, continued 50 mg b.i.d., week 20): 0.32 mmol/L | [total cholesterol] Mean CFB (Study 1 24 weeks results, continued 50 mg b.i.d., week 24): 0.34 mmol/L | [Total cholesterol] Median CFB [15]: 0.00 mmol/L | [total cholesterol] Mean CFB [15]: 0.03 mmol/L | [Total cholesterol] Median CFB [16]: 0.00 mmol/L | [total cholesterol] Mean CFB [16]: -0.01 mmol/L | [Total cholesterol] Median CFB [17]: 0.05 mmol/L | [total cholesterol] Mean CFB [17]: 0.05 mmol/L | [Total cholesterol] Median CFB [18]: 0.20 mmol/L | [total cholesterol] Mean CFB [18]: 0.14 mmol/L | [Total cholesterol] Median CFB [19]: 0.25 mmol/L | [total cholesterol] Mean CFB [19]: 0.24 mmol/L | [Total cholesterol] Median CFB [20]: 0.25 mmol/L | [total cholesterol] Mean CFB [20]: 0.21 mmol/L | [Total cholesterol] Median CFB [21]: 0.25 mmol/L | [total cholesterol] Mean CFB [21]: 0.20 mmol/L | [Total cholesterol] Median CFB [22]: 0.30 mmol/L | [total cholesterol] Mean CFB [22]: 0.28 mmol/L | [total cholesterol] Mean CFB (Study 1 24 weeks results, continued 100 mg b.i.d., week 1): 0.30 mmol/L
